In brackets after ≈: the same amount, converted by molar mass. Marks after values point to notes of the source that are not given here.
Columns and labels:
[1] = system: Bacillus subtilis ATCC 6633; experiment: MIC determination (broth micro-dilution); type: cell-based; conditions: ATCC6633
Method in brief: (§1)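 Twofold broth micro-dilution, Müller–Hinton, EUCAST. Stock 2 mg/ml in 96% EtOH. Inoculum 0.5 McFarland, ~3 × 10^6 CFUs/ml in saline, from 18 h agar culture at 30 °C. Read OD 570 nm; MIC by linear regression; n=3, mean.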

[2] = system: Candida tropicalis ATCC 750; experiment: MIC determination (broth micro-dilution); type: cell-based; conditions: ATCC750
Method in brief: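 Twofold broth microdilution per EUCAST, in Müller–Hinton broth for bacteria and RPMI 1640 + 2% dextrose for fungi; inoculum adjusted to 0.5 McFarland. MIC derived by linear regression of OD at 570 nm; triplicate means.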

[3] = system: Enterococcus hyrae ATCC 8043; experiment: MIC determination (broth micro-dilution); type: cell-based; conditions: ATCC8043
Method in brief: as §1

[4] = system: Staphylococcus aureus ATCC 25213; experiment: MIC determination (broth micro-dilution); type: cell-based; conditions: ATCC25213
Method in brief: as §1

[5] = system: Candida albicans ATCC 10231; experiment: Minimum biofilm eradication assay; type: cell-based; conditions: ATCC10231, 48 h, read-out: MBEC
Procedure: (§2) We tested the susceptibility of different bacterial and yeast strains to compounds 5a–f by determining the minimum biofilm eradication concentration (MBEC). The test was performed in a sterile 96-well flat-bottom plastic tissue culture plate (TPP, Switzerland). Each well was filled with 100 µl of bacterial (10^7 CFUs/ml) or yeast (5 × 10^6 CFUs/ml) suspension. When the possibility of inhibition of yeast biofilm formation was tested, the wells were pre-treated with FBS (250 µl per well). Negative controls contained broth only. Positive controls were performed using standard antibacterial and antifungal drugs gentamycin and amphotericin B, respectively. The plates were covered and incubated aerobically for 24 h (bacteria) or 48 h (yeast) at 37 °C. Following the incubation period, each well was aspirated and washed three times with 250 µl of PBS and vigorously shaken in order to remove all non-adherent bacteria/yeast. The remaining attached cells were fixed with methanol (15 min) and the plates were left to dry overnight. The formed biofilm was stained with crystal violet (1%, 5 min). Excess stain was rinsed by placing the plate under running tap water and the plates were left to dry for 24 h. Adherent cells were resolubilized with acetic acid (33%, v/v). The optical density of each well was measured at 570 nm using a Multiscan plate reader. The MBEC value represents the lowest compound dilution at which microorganisms fail to grow.

[6] = system: Candida albicans ATCC 90028; experiment: Minimum biofilm eradication assay; type: cell-based; conditions: ATCC90028, 48 h, read-out: MBEC
Procedure: as §2

[7] = system: Candida kefyr ATCC 2512; experiment: Minimum biofilm eradication assay; type: cell-based; conditions: Kluyveromyces marxianus, ATCC2512, 48 h, read-out: MBEC
Procedure: as §2

[8] = system: Candida krusei ATCC 14243; experiment: Minimum biofilm eradication assay; type: cell-based; conditions: Pichia kudriavzevii, ATCC14243, 48 h, read-out: MBEC
Procedure: as §2

[9] = system: Candida parapsylosis ATCC 22019; experiment: Minimum biofilm eradication assay; type: cell-based
Procedure: as §2

[10] = system: Candida tropicalis ATCC 750; experiment: Minimum biofilm eradication assay; type: cell-based; conditions: ATCC750, 48 h, read-out: MBEC
Procedure: as §2

[11] = system: Enterococcus faecalis ATCC 29212; experiment: Minimum biofilm eradication assay; type: cell-based
Procedure: as §2

[12] = system: Escherichia coli ATCC 10536; experiment: Minimum biofilm eradication assay; type: cell-based
Procedure: as §2

[13] = system: Escherichia coli ATCC 8739; experiment: Minimum biofilm eradication assay; type: cell-based
Procedure: as §2

[14] = system: Pseudomonas aeruginosa ATCC 27853; experiment: Minimum biofilm eradication assay; type: cell-based
Procedure: as §2

[15] = system: Pseudomonas aeruginosa ATCC 9027; experiment: Minimum biofilm eradication assay; type: cell-based
Procedure: as §2

[16] = system: Staphylococcus aureus ATCC 25213; experiment: Minimum biofilm eradication assay; type: cell-based
Procedure: as §2

[17] = system: Staphylococcus aureus ATCC 6538; experiment: Minimum biofilm eradication assay; type: cell-based
Procedure: as §2

[18] = Interaction with 1,1-diphenyl-2-picrylhydrazyl (DPPH); conditions: 100 μΜ
Procedure: To a solution of DPPH in absolute ethanol, an appropriate volume of the tested compound solution (0.1 mM final concentration) dissolved in DMSO was added. Absorbance was recorded at 517 nm after 20 and 60 min at room temperature (Lambda 20 double beam spectrophotometer, Perkin-Elmer, UK). Experiments were repeated at least in triplicate and the standard deviation of absorbance was less than 10% of the mean[10]. NDGA was used under the same experimental conditions as a reference compound.

[19] = Inhibition of linoleic acid peroxidation (LP), AAPH-initiated; parameters: tested at 100 µM; conditions: 100 μΜ, 37 °C
Procedure: To initiate lipid peroxidation, the free radical AAPH was used[10]. The final solution in the UV cuvette consisted of 10 µl sodium linoleate solution (c = 16 mM) and 0.93 ml phosphate buffer pH 7.4 (c = 50 mM). Afterwards, 10 µl of the tested compound solution in DMSO (final concentration 0.1 mM) and 50 µl of AAPH solution (c = 40 mM) were added. The experiment was performed at 37 °C under air. Oxidation of linoleic acid sodium salt was monitored at 234 nm. The assay was repeated at least in triplicate and the standard deviation of absorbance was less than 10% of the mean. Trolox was used under the same experimental conditions as a reference compound.

[20] = system: S. aureus strains; experiment: MIC determination, S. aureus strains; type: cell-based, Staphylococcus aureus; conditions: for MIC: Staphylococcus aureus, S. aureus strains, lowest value quoted in text; for MIC range: tested Staphylococcus spp.
Procedure: Before analysis, compounds 5a–f were dissolved in 96% ethanol in a concentration of 2 mg/ml as stock solutions. Inoculums were prepared with fresh cultures of microbial strains, cultured on tryptic-soy agar or Sabouraud 2% (m/v) dextrose agar for 18 h (48–72 h for fungi) at 30 °C with physiological saline containing approximately […]. Inoculum density (0.5 McFarland units) was adjusted with a bio Mériex (France) densitometer. Minimum inhibitory concentration (MIC) was determined by the twofold micro-dilution method in Mu¨ller–Hinton broth for bacterial strains and RPMI 1640 + 2% m/v dextrose for fungi according to the EUCAST recommendations in a sterile 96-well flat-bottom plastic tissue culture plate. MIC was determined using a linear regression curve after incubation of compounds and reading the optical density at 570 nm using an iEMS microplate reader. […] All tests were performed in triplicate and expressed as the mean.

[21] = system: E. coli (both strains); experiment: Minimum biofilm eradication assay, E. coli both strains; type: cell-based, Escherichia coli
Procedure: as §2, with “The MBEC value represents the lowest compound dilution at which microorganisms fail to grow.” left out

Row | MIC [1] [µg/mL] | MIC [2] [µg/mL] | MIC [3] [µg/mL] | MIC [4] [µg/mL] | Compound | minimal effective concentration [5] [µg/mL] | minimal effective concentration [6] [µg/mL] | minimal effective concentration [7] [µg/mL] | minimal effective concentration [8] [µg/mL] | MBEC [9] [µg/mL] | minimal effective concentration [10] [µg/mL] | MBEC [11] [µg/mL] | MBEC [12] [µg/mL] | MBEC [13] [µg/mL] | MBEC [14] [µg/mL] | MBEC [15] [µg/mL] | MBEC [16] [µg/mL] | MBEC [17] [µg/mL] | DPPH-reducing ability 20 min [18] | DPPH-reducing ability 60 min [18] | LP inhibition (%) ± SD [19] [%] | further results
1 | > 100 | > 100 | > 100 | > 100 | COc1cc(NC(C)CCCNC(=O)NC(C(=O)NC(c2ccccc2)c2ccc(Cl)cc2)c2ccccc2)c2ncccc2c1 (stereo not shown) [Compound 5c, N-[(4-chlorophenyl)(phenyl)methyl]-2-[({4-[(6-methoxyquinolin-8-yl)amino]pentyl}carbamoyl)amino]-2-phenylacetamide] | 50 | 25 | > 100 | > 100 | >100 | > 100 | >100 | 6.25 | 6.25 | 25 | 50 | >100 | >100 | 2^b % | 2^b % | 99 ± 2.8 | –
2 | 65 (≈ 102 µM) | > 100 | > 100 | 12.5 (≈ 19.6 µM) | COc1cc(NC(C)CCCNC(=O)NC(C(=O)NC(c2ccccc2)c2ccccc2)c2ccc(Cl)cc2)c2ncccc2c1 (stereo not shown) [Compound 5d, 2–(4-chlorophenyl)-N-(diphenylmethyl)-2-[({4-[(6-methoxyquinolin-8-yl)amino]pentyl}carbamoyl)amino]acetamide] | 50 | 25 | 25 | > 100 | >100 | > 100 | >100 | 25 | 25 | 50 | 50 | 25 | 25 | 1^b % | 2^b % | 90 ± 4.5 | MIC [20]: 6.5 µg/mL (≈ 10.2 µM); MIC range [20]: 12.5 to 25 µg/mL; melting point: 180 to 183 °C

More lines, now with the values behind:

Row | Compound | MIC [1] [µg/mL] | MIC [2] [µg/mL] | MIC [3] [µg/mL] | MIC [4] [µg/mL] | minimal effective concentration [5] [µg/mL] | minimal effective concentration [6] [µg/mL] | minimal effective concentration [7] [µg/mL] | minimal effective concentration [8] [µg/mL] | MBEC [9] [µg/mL] | minimal effective concentration [10] [µg/mL] | MBEC [11] [µg/mL] | MBEC [12] [µg/mL] | MBEC [13] [µg/mL] | MBEC [14] [µg/mL] | MBEC [15] [µg/mL] | MBEC [16] [µg/mL] | MBEC [17] [µg/mL] | DPPH-reducing ability 20 min [18] | DPPH-reducing ability 60 min [18] | LP inhibition (%) ± SD [19] [%] | further results
3 | COc1cc(NC(C)CCCNC(=O)NC(CC(C)C)C(=O)NC(c2ccccc2)c2ccccc2)c2ncccc2c1 (stereo not shown) [Compound 5a, N-(diphenylmethyl)-2-[({4-[(6-methoxyquinolin-8-yl)amino]pentyl}carbamoyl)amino]-4-methylpentanamide] | 50 (≈ 85.9 µM) | > 100 | > 100 | 6.5 (≈ 11.2 µM) | > 100 | 25 | > 100 | > 100 | >100 | > 100 | >100 | 6.25 | 6.25 | 25 | 60 | 25 | 12.5 | 6^b % | 5^b % | 15 ± 0.7 | MIC [20]: 6.5 µg/mL (≈ 11.2 µM); MIC range [20]: 6.5 to 15 µg/mL; melting point: 184.5 to 185.5 °C
4 | COc1cc(NC(C)CCCNC(=O)NC(C(=O)N(C)C(c2ccccc2)c2ccccc2)c2ccccc2)c2ncccc2c1 (stereo not shown) [Compound 5b, N-(diphenylmethyl)-2-[({4-[(6-methoxyquinolin-8-yl)amino]pentyl}carbamoyl)amino]-N-methyl-2-phenylacetamide] | > 100 | > 100 | > 100 | 60 (≈ 97.4 µM) | 50 | 50 | > 100 | > 100 | >100 | > 100 | >100 | 12.5 | 12.5 | >100 | >100 | >100 | >100 | 7^b % | 5^b % | 92 ± 3.2 | –
5 | COc1ccc(C(=NNC(=O)C(NC(=O)NCCCC(C)Nc2cc(OC)cc3cccnc23)c2ccc(Cl)cc2)c2ccccc2)cc1 (stereo not shown) [Compound 5f, 3-[(4-chlorophenyl)({N'-[(4-methoxyphenyl)(phenyl)methylidene]hydrazinecarbonyl})methyl]-1-{4-[(6-methoxyquinolin-8-yl)amino]pentyl}urea] | > 100 | > 100 | > 100 | > 100 | 25 | 25 | 6.25 | > 100 | >100 | > 100 | >100 | 12.5 | 6.25 | >100 | >100 | >100 | >100 | 2^b % | 2^b % | 90 ± 3.6 | –
6 | COc1cc(NC(C)CCCN)c2ncccc2c1 (stereo not shown) [PQ, 8-[(4-amino-1-methylbutyl)amino]-6-methoxyquinoline, reference compound] | 80 (≈ 308 µM) | > 100 | > 100 | 70 (≈ 270 µM) | > 100 | > 100 | 50 | > 100 | 50 | > 100 | >100 | 25 | 25 | 50 | 70 | >100 | 50 | – | – | – | MBEC [21]: 25 µg/mL
